Drawing on patent publication US8334382B2, “Substituted biaryl piperazinyl-pyridine analogues” (Neurogen Corporation, priority 2004, dated 2012), this text covers Ki and IC50 for 18 compounds.

Each structure is given as a SMILES string.

One assay deals with VR. The conditions noted are these: binds to VR with no more than moderate affinity; cited from earlier work.
The target in a further assay is T1, human capsaicin receptor (Homo sapiens, UniProt Q8NER1).
T1 construct: expressed in transfected cells; host or cells: HEK293, stably transfected with pBK-CMV construct
Briefly: Calcium mobilization assay, determination of antagonist activity. The conditions noted are these: capsaicin at EC50; cells expressing human capsaicin receptor; Example 6. The class given is cell-based. In short, it runs like this: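 IC50 is the antagonist level giving a 50% drop in the capsaicin (EC50) calcium signal, read by FLIPR in Fluo-3 AM-loaded stable HEK293 lines bearing full-length human receptor. Compounds at 1-5 µM final were preincubated 0.5-6 h, room temperature, dark, in KRH pH 7.4.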

T1 sequence (Q8NER1 whole entry): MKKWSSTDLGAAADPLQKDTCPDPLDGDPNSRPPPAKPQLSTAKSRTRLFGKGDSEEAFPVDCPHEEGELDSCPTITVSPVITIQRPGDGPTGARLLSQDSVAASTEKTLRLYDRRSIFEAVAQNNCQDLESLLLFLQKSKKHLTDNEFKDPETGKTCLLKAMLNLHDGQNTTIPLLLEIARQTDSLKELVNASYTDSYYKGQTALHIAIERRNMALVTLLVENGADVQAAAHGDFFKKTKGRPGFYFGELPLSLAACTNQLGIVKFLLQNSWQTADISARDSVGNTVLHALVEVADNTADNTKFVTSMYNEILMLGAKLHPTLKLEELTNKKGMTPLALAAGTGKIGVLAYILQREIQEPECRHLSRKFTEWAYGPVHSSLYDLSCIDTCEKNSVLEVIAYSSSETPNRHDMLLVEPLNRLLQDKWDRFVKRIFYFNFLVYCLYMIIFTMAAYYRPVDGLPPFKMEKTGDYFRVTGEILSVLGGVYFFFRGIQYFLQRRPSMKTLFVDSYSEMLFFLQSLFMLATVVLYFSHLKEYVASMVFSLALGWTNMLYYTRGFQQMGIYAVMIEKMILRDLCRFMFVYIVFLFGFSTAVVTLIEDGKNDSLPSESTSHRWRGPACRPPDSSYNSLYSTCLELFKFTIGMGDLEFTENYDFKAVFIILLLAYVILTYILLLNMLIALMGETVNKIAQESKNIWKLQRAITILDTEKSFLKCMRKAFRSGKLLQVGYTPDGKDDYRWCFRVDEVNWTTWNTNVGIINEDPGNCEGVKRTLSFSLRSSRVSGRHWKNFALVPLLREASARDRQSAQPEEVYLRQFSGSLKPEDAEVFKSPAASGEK

As to `Cl.Cl.Cl.Cl.Cl.Cl.N.N.N.N.N.N.N.N.N.N.N.N.N.N.[O-2].[O-2].[Ru+3].[Ru+3].[Ru+4]` [ruthenium red], the Ki at VR is at least 140000 nM.

With `Cc1cc(-c2ncc[nH]2)cnc1N1CCN(c2cc(-c3ccc(F)cc3)nc(N3CCC[C@H]3C)n2)[C@H](C)C1` [Example 169, 4-(4-Fluoro-phenyl)-6-{4-[5-(1H-imidazol-2-yl)-3-methyl-pyridin-2-yl]-2-(R)-methyl-piperazin-1-yl}-2-(2-(R)-methyl-pyrrolidin-1-yl)-pyrimidine], at human capsaicin receptor, the IC50 was at most 1000 nM.

For the compound `CCOC(=O)c1cnc(N2CCN(c3cc(-c4ccc(F)cc4)nc(N4CCCC4C)n3)[C@H](C)C2)c(Cl)c1` (stereo partly drawn) [Example 27, 5-Chloro-6-{4-[6-(4-fluoro-phenyl)-2-(2-methyl-pyrrolidin-1-yl)-pyrimidin-4-yl]-3-(R)-methyl-piperazin-1-yl}-nicotinic acid ethyl ester], on human capsaicin receptor, the IC50 was at most 1000 nM.

For the compound `C[C@@H]1CN(c2ncc(CCO)cc2Cl)CCN1c1cc(-c2ccc(F)c(Cl)c2)nc(N2CCC[C@H]2C)n1` [Example 185, 2-[5-chloro-6-((3R)-4-{6-(3-chloro-4-fluorophenyl)-2-[(2R)-2-methylpyrrolidin-1-yl]pyrimidin-4-yl}-3-methylpiperazin-1-yl)pyridin-3-yl]ethanol], on human capsaicin receptor, the IC50 is at most 1000 nM.

Take `CC1CCCN1c1nc(-c2ccc(F)cc2)cc(N2CCN(c3ncc(C(N)=O)cc3Cl)CC2)n1` (stereo not drawn) [Example 40, 5-Chloro-6-{4-[6-(4-fluoro-phenyl)-2-(2-methyl-pyrrolidin-1-yl)-pyrimidin-4-yl]-piperazin-1-yl}-nicotinamide]: the IC50 at human capsaicin receptor is at most 1000 nM.

As to `Cc1cc(C(=O)NCCCN(C)C)cnc1N1CCN(c2cc(-c3ccc(F)cc3)nc(N3CCCC3C)n2)CC1` (stereo not drawn) [Example 116, N-[3-(dimethylamino)propyl]-6-{4-[6-(4-fluorophenyl)-2-(2-methylpyrrolidin-1-yl)pyrimidin-4-yl]piperazin-1-yl}-5-methylnicotinamide], the IC50 at human capsaicin receptor is at most 1000 nM.

Turning to `COCC(C)NC(=O)c1cnc(N2CCN(c3cc(-c4ccc(F)cc4)nc(N4CCCC4C)n3)CC2)c(C)c1` (stereo not drawn) [Example 117, 6-{4-[6-(4-fluorophenyl)-2-(2-methylpyrrolidin-1-yl)pyrimidin-4-yl]piperazin-1-yl}-N-(2-methoxy-1-methylethyl)-5-methylnicotinamide], the IC50 at human capsaicin receptor was at most 1000 nM.

As to `Cc1cc(C(=O)N2CCC(C)CC2)cnc1N1CCN(c2cc(-c3ccc(F)cc3)nc(N3CCCC3C)n2)CC1` (stereo not drawn) [Example 125, 4-(4-fluorophenyl)-6-(4-{3-methyl-5-[(4-methylpiperidin-1-yl)carbonyl]pyridin-2-yl}piperazin-1-yl)-2-(2-methylpyrrolidin-1-yl)pyrimidine], the IC50 on human capsaicin receptor was at most 1000 nM.

For `Cc1cc(C(=O)N2CCCC2)cnc1N1CCN(c2cc(-c3ccc(F)cc3)nc(N3CCCC3C)n2)CC1` (stereo not drawn) [Example 122, 4-(4-fluorophenyl)-2-(2-methylpyrrolidin-1-yl)-6-{4-[3-methyl-5-(pyrrolidin-1-ylcarbonyl)pyridin-2-yl]piperazin-1-yl}pyrimidine], the IC50 on human capsaicin receptor is at most 1000 nM.

`Cc1cc(C(=O)O)cnc1N1CCN(c2cc(-c3ccccc3)nc(N3CCCC3C)n2)CC1` (stereo not drawn) [Example 75, 5-Methyl-6-{4-[2-(2-methyl-pyrrolidin-1-yl)-6-phenyl-pyrimidin-4-yl]-piperazin-1-yl}-nicotinic acid]: on human capsaicin receptor, the IC50 is at most 1000 nM.

For `Cc1cc(C(N)=O)cnc1N1CCN(c2cc(-c3ccncc3)nc(N(C)C)n2)[C@H](C)C1` [Example 85, 6-[4-(2-Dimethylamino-6-pyridin-4-yl-pyrimidin-4-yl)-3-(R)-methyl-piperazin-1-yl]-5-methyl-nicotinamide], on human capsaicin receptor, the IC50 was at most 1000 nM.

Regarding `CC1CCCN1c1nc(-c2ccc(F)cc2)cc(N2CCN(c3ncc(C(C)(C)O)cc3Cl)CC2)n1` (stereo not drawn) [Example 147, 2-(5-Chloro-6-{4-[6-(4-fluoro-phenyl)-2-(2-methyl-pyrrolidin-1-yl)-pyrimidin-4-yl]-piperazin-1-yl}-pyridin-3-yl)-propan-2-ol], the IC50 on human capsaicin receptor is at most 1000 nM.

Turning to `CC1CCCN1c1nc(-c2ccccc2)cc(N2CCN(c3ncc(CO)cc3Cl)C[C@H]2C)n1` (stereo partly drawn) [Example 47, (5-Chloro-6-{3-(R)-methyl-4-[2-(2-methyl-pyrrolidin-1-yl)-6-phenyl-pyrimidin-4-yl]-piperazin-1-yl}-pyridin-3-yl)-methanol], the IC50 on human capsaicin receptor was at most 1000 nM.

`CCCN1CCN(c2nc(-c3ccc(F)c(Cl)c3)cc(N3CCN(c4ncc([N+](=O)[O-])cc4C)CC3)n2)CC1` [Example 14, 4-(3-Chloro-4-fluoro-phenyl)-6-[4-(3-methyl-5-nitro-pyridin-2-yl)-piperazin-l-yl]-2-(4-propyl-piperazin-1-yl)-pyrimidine]: the IC50 at human capsaicin receptor is at most 1000 nM.

As for `Cc1cc(C(=O)O)cnc1N1CCN(c2cc(-c3ccc(F)cc3)nc(N3CCC[C@H]3C)c2)[C@H](C)C1` [Example 172, 6-{4-[2-(4-Fluoro-phenyl)-6-(2-(R)-methyl-pyrrolidin-1-yl)-pyridin-4-yl]-3-(R)-methyl-piperazin-1-yl}-5-methyl-nicotinic acid], the IC50 on human capsaicin receptor is at most 1000 nM.

With `CCOCCCNC(=O)c1cnc(N2CCN(c3cc(-c4ccc(F)cc4)nc(N4CCCC4C)n3)CC2)c(C)c1` (stereo not drawn) [Example 112, N-(3-ethoxypropyl)-6-{4-[6-(4-fluorophenyl)-2-(2-methylpyrrolidin-1-yl)pyrimidin-4-yl]piperazin-1-yl}-5-methylnicotinamide], the IC50 on human capsaicin receptor was at most 1000 nM.

Take `Cc1cc(CC(=O)O)cnc1N1CCN(c2cc(-c3ccc(F)cc3)nc(N3CCC[C@H]3C)n2)[C@H](C)C1` [Example 105, (6-{4-[6-(4-Fluoro-phenyl)-2-(2-(R)-methyl-pyrrolidin-1-yl)-pyrimidin-4-yl]-3-(R)-methyl-piperazin-1-yl}-5-methyl-pyridin-3-yl)-acetic acid]: the IC50 at human capsaicin receptor is at most 1000 nM.

For `Cc1cc(-c2nnn[nH]2)cnc1N1CCN(c2cc(-c3ccc(F)cc3)nc(N3CCC[C@H]3C)n2)[C@H](C)C1` [Example 164, 4-(4-Fluoro-phenyl)-6-{2-(R)-methyl-4-[3-methyl-5-(1H-tetrazol-5-yl)-pyridin-2-yl]-piperazin-1-yl}-2-(2-(R)-methyl-pyrrolidin-1-yl)-pyrimidine], the IC50 on human capsaicin receptor is at most 1000 nM.
